Key:
[1] = system: Akkermansia genus species in cultured microbiome; assay: RapidAIM assay of an individual microbiome treated with berberine, species-level taxonomic quantification on MetaLab; format: cell-based; conditions: high concentration vs sample cultured without drug treatment
From the text: Developing RapidAIM in a multi-well plate format: microbiota can be inoculated and grown in culture media. Assays, performed in any multiwall format (e.g. 6 well to 96 well plate formats, or any other type of format, for example, using tubes) and can be titrated, examining at each stage whether the yield per well provides sufficient material for downstream analyses. The analysis can be performed using a workflow for metaproteome as described in Zhang et al. “MetaPro-IQ: a universal metaproteomic approach to studying human and mouse gut microbiota”, Microbiome, 2016 Jun. 24:4(1):31, doi: 10.1186/s40168-016-0176-z. The workflow uses the close-to-complete human or mouse gut microbial gene catalog as a database and uses an iterative database search strategy. An example of a high-through put experimental workflow for the RapidAIM has been established based on a 96-well format (FIG. 9). This workflow includes, (A) 96-well based microbiome culturing, and (B) 96-well based metaproteomics analysis.
As an example, RapidAIM was used to assay an individual a microbiome treated with a high, medium or low dose of berberine compared to the sample cultured without drug treatment (FIG. 10). The taxonomic composition at the species level were quantified in each of the cultured microbiome sample on the MetaLab bioinformatics platform.

human microbiota = assay: SILAMi-based metaproteomics of microbiota cultured with or without monosaccharides; format: cell-based; conditions: 2.5 g/L monosaccharide vs non-treated control; for overall effect on the metaproteome: 3,158 quantified proteins
Method: Finally, it was tested whether the […] labelled-standard could be used to distinguish the effects of different monosaccharides on the microbiota. It will be understood that monosaccharides are used herein as an example of a compound that may have an effect on the microbiota. However, other compounds that have be introduced to a microbiota sample or to a subject of which a microbiota sample has been obtained, that may impact the microbiota, may be similarly analyzed as described herein. Overall, 18 samples cultured with or without 2.5 g/L of each monosaccharide (N-acetyl glucosamine or GlcNAc, mannose, galactose, fucose, or glucose) were analyzed, by […]-based metaproteomics which led to 3,158 quantified proteins. Two hundred and forty-six protein groups were identified as being differentially abundant as compared to the non-treated control group (Table 4): […]

Akkermansia spp = conditions: reported in other literature; cited from earlier work

COc1ccc2cc3[n+](cc2c1OC)CCc1cc2c(cc1-3)OCO2 [Berberine]
abundances of the species originating from the Akkermansia genus [1]: significantly increased

CC(=O)N[C@H]1C(O)O[C@H](CO)[C@@H](O)[C@@H]1O (some centres unmarked) [GlcNAc, N-acetyl glucosamine]
change of GlcNAc degrading proteins (human microbiota): significant increase
change of asparagine synthase (human microbiota): significantly increased
overall effect on the metaproteome (human microbiota): most dramatic alterations of the metaproteome

CN(C)C(=N)N=C(N)N [Metformin]
Akkermansia spp in the gut microbiome (Akkermansia spp): increased

C[C@H](O)[C@@H](O)[C@@H](O)[C@H](O)C=O [fucose]
change of cluster 206, mainly fucose utilization-related proteins (human microbiota): increased only in the fucose-treated microbiota
change of quantified fucose utilizing proteins in the fucose utilization pathway (human microbiota): all of the six quantified fucose utilizing proteins in the fucose utilization pathway were increased
overall effect on the metaproteome (human microbiota): smallest effect on the metaproteome

— patent US11175294B2, “Protein composition and methods for analysing microbiota” (UNIVERSITY OF OTTAWA, priority 2016, dated 2021)
